The values that follow come from publication PMC5410595, “In Vitro and In Silico Antidiabetic and Antimicrobial Evaluation of Constituents from Kickxia ramosissima (Nanorrhinum ramosissimum)” (Frontiers in Pharmacology, 2017).

Common to all, as to format: biochemical
In assay [1] the target is T1, α-glucosidase from Saccharomyces cerevisiae (Saccharomyces cerevisiae, UniProt P53341).
T1 construct: purchased Sigma-Aldrich
The experiment in a line: α-glucosidase inhibition assay. Further details: inhibition: dose or concentration left out as unconfirmed. The settings on record: for α-glucosidase % inhibition: at the highest test concentration of 2 mM; for inhibition: read-out: α-glucosidase % inhibition. The protocol:
The α-glucosidase assay was carried out according as reported before ([Amin et al., 2016]). The test protocol is attached as Supplementary Material ([Amin et al., 2016]).
81 Inhibition of α-glucosidase.
82 α-Glucosidase inhibitory activity was assayed according to method adopted by Choudhary et al.
83 (2010) with some modifications. Briefly, 50 µL of a solution of α-glucosidase from
84 Saccharomyces cerevisiae (0.2 U/mL in 0.1 M phosphate buffer at pH 6.8, Sigma-Aldrich, St.
85 Louis, MO, USA) was incubated with 20 μL of test compounds or extracts at different
86 concentrations (ranging from 6 mM – 0.372 mM in 25% DMSO for isolated constituents or
87 from 5 mg to 0.039 mg/mL for extracts) at 37 °C for 10 min. Then 50 μl of the substrate,
88 p-nitrophenyl-α-D-glucopyranoside (0.7 mM stock, final concentration 0.29 mM) was added to
89 the reaction mixture and incubated again for 30 min at 37 °C. […]
91 from 834 µg to 6.5 µg/mL for extracts. The reaction was stopped by adding Na2CO3 (100 μl,
92 200 mM stock) solution and the absorbance was measured at 400 nm. Final DMSO
93 concentration remained below 7.5% during the assay.
94 concentration) was used as reference compound.
96 The % inhibition was calculated using the following formula:
98 % Inhibition = 100 – [OD (test sample) / OD (control)] × 100
100 Alpha-glucosidase inhibition was categorized as mild (1-25%), moderate (26-50%), high

Assay [2] concerns formation of AGEs (BSA-MGO). The experiment in a line: BSA-MGO antiglycation assay. The settings on record: for Protein glycation BSA-MGO % inhibition: isolated constituents, highest test concentration; for pIC50: read-out: Protein glycation BSA-MGO IC50. The method, then:
(§1) The BSA-glucose and BSA-MGO antiglycation assays were performed as reported before ([Amin et al., 2016]). The test protocol is attached as Supplementary Material ([Amin et al., 2016]).
60 Protein-glyoxal interaction (BSA-MGO assay)
61 The antiglycation assay using methylgloxyl (MGO) was performed according to the method
62 developed by Peng et al. (2007) with slight modifications. Briefly, methylglyoxal (135 μL, 5.75
63 mM) was incubated with BSA (135 μL, 10 mg/mL) dissolved in phosphate buffer (50 mM, pH
64 7.4, containing sodium azide (0.02%), added to prevent bacterial growth) and test compounds
65 (30 μL) at different final concentrations (1.5 – 0.023 mM) in 100% DMSO. The reaction
66 mixture was incubated at 37 °C for one week. Control solutions only contained methylglyoxal
67 (135 μL, 5.75 mM) BSA (135 μL, 1 0mg/mL) and DMSO (100%) only. The blank samples of
68 similar composition were also prepared simultaneously and kept at 4 °C for one week. The
70 440) due to formation of AGEs was monitored by spectrofluorometry (Tecan® Infinite M200,
71 Giessen, The Netherlands). Aminoguanidine (3-0.046 mM final concentration) was used as
72 reference compound. The AGEs inhibition was calculated as
74 % AGEs inhibition = [1–(S–Sb)/(C–Cb)] x 100
76 where S and C were fluorescence of test samples (in DMSO) and control (test mixtures
77 containing only DMSO) incubated at 37 °C, and where Sb and Cb were fluorescence for
78 samples incubated at 4 °C.
79 using Sigma plot® 13.0.

The test system of assay [3] is formation of AGEs (BSA-glucose). The experiment in a line: BSA-glucose antiglycation assay. Conditions: for Protein glycation BSA-Glucose % inhibition: isolated constituents, at the highest test concentration of 3 mM; for pIC50: read-out: Protein glycation BSA-Glucose IC50. The protocol:
as §1
28 Antiglycation assay (BSA-Glucose assay)
29 In the BSA-glucose assay the prevention of AGEs formation is investigated by determining the
30 fluorescence of the complex formed after incubation of a sugar (glucose) with protein (BSA) in
31 the presence or absence of test compounds. The antiglycation assay was performed according to
32 the method developed by Matsuura et al. (2002) with minor modifications. […]
37 DMSO. The mixtures were incubated at 60°C for 48 h. After incubation, the reaction mixture
38 was allowed to cool down at room temperature. Then 100 µL reaction mixture was transferred
39 to a new plastic tube (1.5 mL) and the reaction was stopped by adding 10 μL of 100% (w/v)
40 trichloroacetic acid (TCA) and to precipitate proteins. The TCA-added mixture was kept at 4°C
41 for 10 min, followed by centrifugation (14000 rpm, 4 °C, 4 min). The supernatant containing
42 unreacted D-glucose, test sample and interfering substances was discarded, whereas the
44 8.1 mM Na2HPO4, 2.68 mM KCl, 1.47 mM KH2PO4, […]). The change in fluorescence
46 of AGEs was monitored by spectrofluorometry (Tecan™ Infinite M200, Giessen, The
47 Netherlands). In order to eliminate interference by autofluorescence of the test compounds, a
48 parallel incubation of test substance with BSA at 60°C without D-glucose was performed for all
50 final concentration) were used as reference compounds.
51 The AGEs inhibition was calculated as
55 where F is the fluorescence intensity.
56 calculated using Sigma plot® 13.0.

In assay [4] the test system is AAPH induced linoleic acid peroxidation. In words: Inhibition of linoleic acid lipid peroxidation, AAPH assay. Conditions: slope of inhibition time (Tinh) vs. concentration of antioxidant. The protocol: The inhibition of linoleic acid lipid peroxidation was studied according to [Liegeois et al. (2000)] and [Rajic et al. (2010)]. Briefly, 10 μL of a 16 mM linoleic acid dispersion and 10 μL of the test compound (8-1 μM final concentration) were added to the UV cuvette containing 0.93 mL of 0.05 M phosphate buffer, pH 7.4. The oxidation reaction was initiated under air by the addition of 50 μL (40 mM) of AAPH solution. The rate of oxidation at 37°C was monitored by recording the increase of absorption at 234 nm caused by conjugated diene hydroperoxides. The results were compared to the standard inhibitor (Trolox). The AOP is defined as the slope of the curve representing the inhibition time of oxidation (Tinh) vs. the concentration of antioxidant and is expressed in min/μM.

The structures appear in SMILES notation. pIC50: −log10 of the molar value. Entries after “also recorded” stand apart in the source; their conditions may differ.

T1 sequence (P53341 whole entry): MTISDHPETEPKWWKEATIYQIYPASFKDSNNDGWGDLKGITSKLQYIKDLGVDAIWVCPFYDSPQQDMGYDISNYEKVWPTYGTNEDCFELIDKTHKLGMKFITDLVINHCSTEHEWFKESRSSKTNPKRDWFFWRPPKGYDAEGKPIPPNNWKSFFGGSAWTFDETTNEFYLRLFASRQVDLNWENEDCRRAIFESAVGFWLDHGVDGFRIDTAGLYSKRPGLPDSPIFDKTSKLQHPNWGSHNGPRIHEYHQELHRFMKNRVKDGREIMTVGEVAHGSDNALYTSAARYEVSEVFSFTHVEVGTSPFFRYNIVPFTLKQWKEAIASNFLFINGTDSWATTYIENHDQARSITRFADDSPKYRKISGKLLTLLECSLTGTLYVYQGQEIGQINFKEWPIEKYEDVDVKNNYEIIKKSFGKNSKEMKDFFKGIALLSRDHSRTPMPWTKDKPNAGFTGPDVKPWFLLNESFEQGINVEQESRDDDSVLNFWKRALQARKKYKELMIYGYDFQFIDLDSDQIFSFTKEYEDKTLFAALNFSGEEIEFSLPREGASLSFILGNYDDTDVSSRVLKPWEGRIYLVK

As for `CO[C@H]1C[C@@]2(O)[C@H](O)[C@@H](O)[C@](C)(OC)[C@H]2[C@@H](OC)O1` [Compound 1, Kickxiasine], the α-glucosidase % inhibition entry in assay [1] is recorded as “no activity”; in assay [1] (listed as compound 1) it was “did not present any activity”. In assay [2], the “Protein glycation BSA-MGO % inhibition” value is reported as 31%. Moreover, the “Protein glycation BSA-Glucose % inhibition” value in assay [3] came out at 26%. Besides, the “AAPH assay AOP (antioxidant power)” value in assay [4] amounted to 0.3 min/µM.
For `CC1(O)CCC2C(C(=O)O)=COC(OC3OC(CO)C(O)C(O)C3O)C21` (stereo not shown) [Compound 2, Mussaenosidic acid], the inhibition in assay [1] was 15%. The “Protein glycation BSA-MGO % inhibition” value in assay [2] is listed as 23%. Further, the “Protein glycation BSA-Glucose % inhibition” value in assay [3] is 35%. For the same compound, in assay [4], the “AAPH assay AOP (antioxidant power)” value came to 0.2 min/µM.
The corresponding values for `COC(=O)C1=COC(OC2OC(CO)C(O)C(O)C2O)C2C1CCC2(C)O` (stereo not shown) [Compound 3, Mussaenoside] are 9%, 24%, 28% and 0.1 min/µM.
As for `COc1ccc(-c2cc(=O)c3c(O)c(OC)c(O)cc3o2)cc1` [Compound 5, Pectolinarigenin], the pIC50 is 3.64 in assay [1], 3.72 in assay [2] and 3.10 in assay [3]. For the same compound, the “AAPH assay AOP (antioxidant power)” value in assay [4] was determined as 0.2 min/µM.
`COc1ccc(-c2cc(=O)c3c(O)c(OC)c(O[C@@H]4O[C@H](CO[C@@H]5O[C@@H](C)[C@H](O)[C@@H](O)[C@H]5O)[C@@H](O)[C@H](O)[C@H]4O)cc3o2)cc1` [Compound 6, Pectolinarin]: the inhibition in assay [1] was 48%. Also, the results for the pIC50 in assay [2] and in assay [3] were 3.89 and 2.64, respectively. The “AAPH assay AOP (antioxidant power)” value in assay [4] is 0.3 min/µM.
In the case of `COC(=O)c1ccc(O)cc1` [Compound 7, 4-Hydroxy benzoic acid methyl ester], the inhibition in assay [1] was determined as 47%. In addition, the “Protein glycation BSA-MGO % inhibition” value in assay [2] is listed as “did not present any inhibition; also recorded: no activity”. Besides, the “Protein glycation BSA-Glucose % inhibition” value in assay [3] is given as “did not present any inhibition; also recorded: no activity”. Besides, the “AAPH assay AOP (antioxidant power)” value in assay [4] is recorded as “did not present any activity; also recorded: Not active”.

In general, inhibition refers to the percentage by which the read-out fell short of the control. One may read the pIC50 as the IC50 on a negative log10 scale, so that one unit is a factor of ten.
